Data: PubChem BioAssay AID179 (DTP/NCI, 2004)
pEC50, pIC50: −log10 of the molar value. The source made the active and inactive calls.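 How the source made its calls: active means compounds giving half or more protection of infected cells from virus-caused growth loss, again on retest; inactive means the rest.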

System: CEM cells HIV-1 protection, formazan growth assay
Test: NCI AIDS Antiviral Assay
Settings: for pIC50: measured here: growth of uninfected CEM cells
Summary of the method: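 Protection of CEM cells against HIV-1 measured as cell growth via soluble formazan read-out, with five concentrations tested on both infected and uninfected cells; failure to protect may reflect toxicity.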

Cc1ccc2c(c1)sc1nncn12
pEC50: < 4.00 | pIC50: < 4.00

C=CCNC(=S)N/C=C(/C(=O)c1ccccc1)c1ccccc1
pEC50: < 3.70 | pIC50: 3.74

Cc1cc2c(cc1C)[n+](=O)c(C(=O)CC(=O)C(=O)Nc1c(C(C)C)cccc1C(C)C)c(C)n2[O-]
pEC50: < 5.10 | pIC50: < 5.10

O=c1ncc2ccc([N+](=O)[O-])cc2[nH]1
pEC50: < 3.73 | pIC50: 3.83

N#CCc1nc2c(s1)C(=O)c1ccccc1C2=O
pEC50: < 5.10 | pIC50: < 5.10

CCOC(=O)C(OP(=O)(OCC)OCC)C(F)(F)F (stereo not given)
pEC50: < 3.70 | pIC50: < 3.70

O=C1CCN=C(NC(=O)C(F)(F)F)N1CCc1c[nH]c2ccccc12
pEC50: < 3.70 | pIC50: < 3.70

C[S+](C)CCS(=O)(=O)[O-]
pEC50: < 3.70 | pIC50: < 3.70

CCC(C)C1(C2CCCC2)NC(=O)NC1=O (stereo not given)
pEC50: < 3.70 | pIC50: < 3.70

C[n+]1c(/C=C/c2ccc3c(c2)OCO3)ccc2ccccc21
pEC50: < 3.70 | pIC50: 5.23

O=S1(=O)C(c2ccccc2)C(N2CCCCC2)C1C1CC2c3ccccc3C1c1ccccc12 (stereo not given)
pEC50: < 3.70 | pIC50: 5.08

Cc1cnc([C@H]2CCC3[C@@H]4CC=C5C[C@@H](O)CC[C@]5(C)C4CC[C@@]32C)s1 (stereo not given in full)
pEC50: < 4.17 | pIC50: < 4.17

COc1ccc(-c2cc(-c3ccco3)c(C#N)c(=S)n2C2OC(COC(C)=O)C(OC(C)=O)C(OC(C)=O)C2OC(C)=O)cc1 (stereo not given)
pEC50: 3.91 | pIC50: 3.84

COc1cc(/C=C/c2ccc(OC)c(OC)c2)cc(OC2OC(CO)C(O)C(O)C2O)c1 (stereo not given)
outcome: inactive

O=c1[nH]c2cc3[nH]c(=O)c(=O)[nH]c3cc2[nH]c1=O
pEC50: < 3.70 | pIC50: < 3.70

O=C(CC(=O)c1cccc([N+](=O)[O-])c1)C(=O)Nc1nc([N+](=O)[O-])cs1
pEC50: < 4.70 | pIC50: < 4.70

O=C1C(=Cc2cccc(Cl)c2)N=C(c2ccccc2)N1n1c(-c2ccccc2)nc2ccccc2c1=O
pEC50: < 3.70 | pIC50: 4.45

O=C(O)C(=O)O.[NH-]C1CCCC1[NH-].[Pt+2] (stereo not given)
pEC50: < 3.70 | pIC50: 5.02

Cc1n[nH]c2ccc(Br)cc2c1=O
pEC50: < 4.30 | pIC50: < 4.30

CNC(=O)O/N=C\C=N\OC(=O)NC
outcome: inactive

CCC(C(=O)OC)C1CCN(C)C(=O)C12CO2 (stereo not given)
pEC50: < 2.99 | pIC50: < 2.99

C/C(O)=C(\C=N\C(N)=S)C(=O)Nc1ccccc1C
pEC50: < 3.70 | pIC50: < 3.70

CSc1nc2c(=O)oc(-c3ccc(Cl)cc3)nc2s1
pEC50: < 3.70 | pIC50: 3.96

Cc1cc(S(=O)(=O)n2ccnc2Oc2cccc(Cl)c2)c(SSc2cc(Cl)c(C)cc2S(=O)(=O)n2ccnc2Oc2cccc(Cl)c2)cc1Cl
pEC50: 5.09 | pIC50: 4.86

COC(=O)NNc1c([N+](=O)[O-])cnn(-c2ccccc2)c1=O
pEC50: < 4.23 | pIC50: 6.53

O=C1CSC(c2ccccc2)N1c1ccc(-n2c(-c3ccccc3)nc3ccccc3c2=O)cc1 (stereo not given)
pEC50: < 3.70 | pIC50: 4.45

O=C(O)c1sccc1Cc1ccsc1
pEC50: < 3.70 | pIC50: < 3.70

CCN1CN(c2ccccc2)C2(CCN(CC(CC3OCCO3)c3ccc(F)cc3)CC2)C1=O (stereo not given)
pEC50: < 3.70 | pIC50: 5.14

COc1ccc(Cl)cc1C(=O)c1cc(Cl)cc(S(=O)(=O)OC)c1OC
pEC50: < 4.61 | pIC50: < 4.61

Cc1cn(C2CC(OP(=O)(O)OCC3CCC(n4ccc(N)nc4=O)O3)C(CO)O2)c(=O)[nH]c1=O (stereo not given)
pEC50: 6.69 | pIC50: 4.45

NCCCNCCSSC/C=C\CSSCCNCCCN
outcome: inactive

Cc1cc(C)nc(NC(=S)Nc2cccc(Cl)c2)c1
pEC50: < 3.70 | pIC50: 4.56

O=C(O)c1cccc(C(=O)c2ccccc2)c1
pEC50: < 3.70 | pIC50: < 3.70

COc1cc(-c2cc(O)c(-c3ccc4ccccc4n3)c(=O)[nH]2)cc(OC)c1OC
pEC50: < 6.03 | pIC50: < 6.03

O=C(/C=C/c1c(O)ccc2ccccc12)c1ccc2ccccc2c1
pEC50: < 3.95 | pIC50: < 3.95

c1ccc2c(c1)sc1scc[n+]12
pEC50: < 3.21 | pIC50: 4.89

O=c1cc(CSc2c(-c3ccccc3)c(=O)n(-c3ccccc3)c(=S)n2-c2ccccc2)[nH]c(=O)[nH]1
pEC50: < 3.70 | pIC50: < 3.70

CCCN1C(=O)CNC(=O)c2[nH]cnc21
outcome: inactive

CC(=O)[O-].COc1cccc(/C=N/[N-]C(=O)c2ccncc2)c1.[OH3+].[OH3+].[OH3+].[Zn+2]
pEC50: < 3.70 | pIC50: 5.41

O=[N+]([O-])c1ccccc1Sc1ccccc1
pEC50: < 4.00 | pIC50: 4.10

CCOc1ccc(-n2c(=O)n3c(Nc4ccc(Cl)cc4)nc4c(c(=O)n(C)c(=O)n4C)n3c2=O)cc1
pEC50: < 4.00 | pIC50: 4.18

O=C1C[C@@H](c2ccccc2)O[C@@H](c2ccccc2)C1
pEC50: < 3.70 | pIC50: 3.95
